From US20230085307A1, “PYRIDAZINONE COMPOUND AND HERBICIDE” (NISSAN CHEMICAL CORPORATION, priority 2019, published 2023)

What was measured:
oval-leafed pondweed [1] = assay: Test Example 1: herbicidal activity, application before weed generation under submerged conditions (Table 16, symbol C); assay type: in vivo, oval-leafed pondweed (Monochoria vaginalis)
Summary of the method: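 Alluvial soil was flooded to 4 cm depth, weed seeds were sown mixed and 2.5-leaf rice seedlings were transplanted. On sowing day, the compound's emulsion, diluted in water to a set dose, was applied to the water surface. Plants grew at 25–30 °C and were scored 0–5 after three weeks.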

Japanese bulrush = assay: Test Example 2: herbicidal activity, application during weed generation under submerged conditions (Table 17, symbol B); assay type: in vivo, Japanese bulrush (Schoenoplectus juncoides); conditions: application during weed generation, submerged conditions
Summary of the method: (§1)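 Wagner pot, alluvial soil, 4 cm flood; mixed sowing of all species; greenhouse 25° C.–30° C. Emulsifiable formulation, water-diluted to predetermined dose, applied to paddy water at 1–2 leaf stage. Effect rated at 3 wk using the earlier test's scoring criteria.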

oval-leafed pondweed [2] = assay: Test Example 2: herbicidal activity, application during weed generation under submerged conditions (Table 17, symbol C); assay type: in vivo, oval-leafed pondweed (Monochoria vaginalis); conditions: application during weed generation, submerged conditions
Summary of the method: as §1

barnyard grass [3] = assay: Test Example 3: herbicidal effect by foliage application, Wagner pot (Table 18, symbol H); assay type: in vivo, barnyard grass (Echinochloa crus-galli)
Summary of the method: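 Plants were sown in alluvial soil held under 0.1–0.5 cm standing water and grown 14 days in a greenhouse at 25–30 °C. An emulsifiable formulation, water-diluted to the set dose, was then sprayed onto the foliage, and effects were scored three weeks later using previously defined criteria.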

green foxtail = assay: Test Example 4: herbicidal effect by soil treatment (Table 19, symbol G); assay type: in vivo, green foxtail (Setaria viridis); conditions: for herbicidal effect rating, G: green foxtail: 320 g/ha
Summary of the method: (§2)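 Three weeks of greenhouse growth at 25° C. to 30° C. followed a uniform surface spray of water-diluted emulsion at a predetermined herbicide amount. Seeds had been sown beforehand under about 1.5 cm of sterilized diluvial soil. Grading followed criteria set out in an earlier test.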

barnyard grass [4] = assay: Test Example 4: herbicidal effect by soil treatment (Table 19, symbol H); assay type: in vivo, barnyard grass (Echinochloa crus-galli); conditions: for herbicidal effect rating, H: barnyard grass: 320 g/ha
Summary of the method: as §2

blackgrass = assay: Test Example 4: herbicidal effect by soil treatment (Table 19, symbol J); assay type: in vivo, blackgrass (Alopecurus myosuroides); conditions: for herbicidal effect rating, J: blackgrass: 320 g/ha
Summary of the method: as §2

velvetleaf = assay: Test Example 4: herbicidal effect by soil treatment (Table 19, symbol M); assay type: in vivo, velvetleaf (Abutilon theophrasti); conditions: for herbicidal effect rating, M: velvetleaf: 320 g/ha
Summary of the method: as §2

redroot pigweed = assay: Test Example 4: herbicidal effect by soil treatment (Table 19, symbol N); assay type: in vivo, redroot pigweed (Amaranthus retroflexus); conditions: for herbicidal effect rating, N: redroot pigweed: 320 g/ha
Summary of the method: as §2

persian speedwell [5] = assay: Test Example 4: herbicidal effect by soil treatment (Table 19, symbol R); assay type: in vivo, Persian speedwell (Veronica persica); conditions: for herbicidal effect rating, R: persian speedwell: 320 g/ha
Summary of the method: as §2

southern crabgrass = assay: Test Example 5: herbicidal effect by foliage application, plastic box (Table 20, symbol F); assay type: in vivo, southern crabgrass (Digitaria ciliaris); conditions: foliage application, 3 weeks after application
Summary of the method: (§3)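 Plants sown in sterilized diluvial soil and grown 14 days in a greenhouse at 25° C to 30° C, then sprayed on the foliage with the compound's emulsion diluted in water to a predetermined herbicide amount. Injury to weeds and crops scored three weeks after application on a visual rating scale.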

windgrass = assay: Test Example 5: herbicidal effect by foliage application, plastic box (Table 20, symbol L); assay type: in vivo, windgrass (Apera spica-venti); conditions: foliage application, 3 weeks after application
Summary of the method: as §3

lambsquarters = assay: Test Example 5: herbicidal effect by foliage application, plastic box (Table 20, symbol O); assay type: in vivo, lambsquarters (Chenopodium album); conditions: foliage application, 3 weeks after application
Summary of the method: as §3

persian speedwell [6] = assay: Test Example 5: herbicidal effect by foliage application, plastic box (Table 20, symbol R); assay type: in vivo, Persian speedwell (Veronica persica); conditions: foliage application, 3 weeks after application
Summary of the method: as §3

Row | SMILES | Herbicidal effect on C: oval-leafed pondweed (grade 0-5) (oval-leafed pondweed [1]; 320 g/ha applied herbicide) | herbicidal effect rating, B: Japanese bulrush (Japanese bulrush; AAH 320 g/ha) | herbicidal effect rating, C: oval-leafed pondweed (oval-leafed pondweed [2]; AAH 320 g/ha) | herbicidal effect on H (barnyard grass), rating 0-5 (barnyard grass [3]; 320 g/ha) | G: green foxtail, herbicidal effect rating (green foxtail; AAH 320 g/ha) | H: barnyard grass, herbicidal effect rating (barnyard grass [4]; AAH 320 g/ha) | J: blackgrass, herbicidal effect rating (blackgrass; AAH 320 g/ha) | M: velvetleaf, herbicidal effect rating (velvetleaf; AAH 320 g/ha) | N: redroot pigweed, herbicidal effect rating (redroot pigweed; AAH 320 g/ha) | R: persian speedwell, herbicidal effect rating (persian speedwell [5]; AAH 320 g/ha) | effect on southern crabgrass (F) (southern crabgrass; 320 g/ha) | effect on windgrass (L) (windgrass; 320 g/ha) | effect on lambsquarters (O) (lambsquarters; 320 g/ha) | effect on persian speedwell (R) (persian speedwell [6]; 320 g/ha) | herbicidal effect rating, G: green foxtail (green foxtail) | herbicidal effect rating, H: barnyard grass (barnyard grass [4]) | herbicidal effect rating, J: blackgrass (blackgrass) | herbicidal effect rating, M: velvetleaf (velvetleaf) | herbicidal effect rating, N: redroot pigweed (redroot pigweed) | herbicidal effect rating, R: persian speedwell (persian speedwell [5]) | other results
1 | C=C(C)COc1ccc(-c2sc3ccccc3c2-c2c(O)c(C)nn(C)c2=O)cc1 [1-208] | 5 (Herbicidal rate of 90% or more (almost completely withered)) | 3 (Herbicidal rate of 40% or more and less than 70%) | 3 (Herbicidal rate of 40% or more and less than 70%) | 5 (Herbicidal rate of 90% or more (almost completely withered)) | 0 (Herbicidal rate of 5% or less (almost no effect)) | 0 (Herbicidal rate of 5% or less (almost no effect)) | 0 (Herbicidal rate of 5% or less (almost no effect)) | 0 (Herbicidal rate of 5% or less (almost no effect)) | 0 (Herbicidal rate of 5% or less (almost no effect)) | 5 (Herbicidal rate of 90% or more (almost completely withered)) | 5 (Herbicidal rate of 90% or more (almost completely withered)) | 4 (Herbicidal rate of 70% or more and less than 90%) | 5 (Herbicidal rate of 90% or more (almost completely withered)) | 5 (Herbicidal rate of 90% or more (almost completely withered)) |  |  |  |  |  |  | 
2 | C=C(Br)COc1ccc(-c2sc3ccccc3c2-c2c(O)c(C)nn(C)c2=O)cc1 [1-215] | 4 (Herbicidal rate of 70% or more and less than 90%) | 3 (Herbicidal rate of 40% or more and less than 70%) | 3 (Herbicidal rate of 40% or more and less than 70%) | 5 (Herbicidal rate of 90% or more (almost completely withered)) | 0 (Herbicidal rate of 5% or less (almost no effect)) | 0 (Herbicidal rate of 5% or less (almost no effect)) | 0 (Herbicidal rate of 5% or less (almost no effect)) | 0 (Herbicidal rate of 5% or less (almost no effect)) | 5 (Herbicidal rate of 90% or more (almost completely withered)) | 3 (Herbicidal rate of 40% or more and less than 70%) | 2 (Herbicidal rate of 20% or more and less than 40%) | 5 (Herbicidal rate of 90% or more (almost completely withered)) | 5 (Herbicidal rate of 90% or more (almost completely withered)) | 5 (Herbicidal rate of 90% or more (almost completely withered)) |  |  |  |  |  |  | 
3 | Cc1nn(C)c(=O)c(-c2c(-c3ccc(OCCC4OCCO4)cc3)sc3ccccc23)c1O [1-223] |  |  |  |  |  |  |  |  |  |  |  |  |  |  |  |  |  |  |  |  | Herbicidal effect on C: oval-leafed pondweed (grade 0-5) (oval-leafed pondweed [1]; 246 g/ha applied herbicide): 4 (Herbicidal rate of 70% or more and less than 90%); herbicidal effect rating, B: Japanese bulrush (Japanese bulrush; AAH 246 g/ha): 3 (Herbicidal rate of 40% or more and less than 70%); herbicidal effect rating, C: oval-leafed pondweed (oval-leafed pondweed [2]; AAH 246 g/ha): 3 (Herbicidal rate of 40% or more and less than 70%); herbicidal effect on H (barnyard grass), rating 0-5 (barnyard grass [3]; 246 g/ha): 5 (Herbicidal rate of 90% or more (almost completely withered)); G: green foxtail, herbicidal effect rating (green foxtail; AAH 246 g/ha): 2 (Herbicidal rate of 20% or more and less than 40%); H: barnyard grass, herbicidal effect rating (barnyard grass [4]; AAH 246 g/ha): 3 (Herbicidal rate of 40% or more and less than 70%); J: blackgrass, herbicidal effect rating (blackgrass; AAH 246 g/ha): 0 (Herbicidal rate of 5% or less (almost no effect)); M: velvetleaf, herbicidal effect rating (velvetleaf; AAH 246 g/ha): 0 (Herbicidal rate of 5% or less (almost no effect)); N: redroot pigweed, herbicidal effect rating (redroot pigweed; AAH 246 g/ha): 4 (Herbicidal rate of 70% or more and less than 90%); R: persian speedwell, herbicidal effect rating (persian speedwell [5]; AAH 246 g/ha): 0 (Herbicidal rate of 5% or less (almost no effect)); effect on southern crabgrass (F) (southern crabgrass; 246 g/ha): 4 (Herbicidal rate of 70% or more and less than 90%); effect on windgrass (L) (windgrass; 246 g/ha): 4 (Herbicidal rate of 70% or more and less than 90%); effect on lambsquarters (O) (lambsquarters; 246 g/ha): 5 (Herbicidal rate of 90% or more (almost completely withered)); effect on persian speedwell (R) (persian speedwell [6]; 246 g/ha): 5 (Herbicidal rate of 90% or more (almost completely withered))
4 | CSCCSCc1ccc(-c2sc3ccccc3c2-c2c(O)c(C)nn(C)c2=O)cc1 [1-253] | 0 (Herbicidal rate of 5% or less (almost no effect)) | 0 (Herbicidal rate of 5% or less (almost no effect)) | 0 (Herbicidal rate of 5% or less (almost no effect)) | 5 (Herbicidal rate of 90% or more (almost completely withered)) | 0 (Herbicidal rate of 5% or less (almost no effect)) | 0 (Herbicidal rate of 5% or less (almost no effect)) | 0 (Herbicidal rate of 5% or less (almost no effect)) | 0 (Herbicidal rate of 5% or less (almost no effect)) | 3 (Herbicidal rate of 40% or more and less than 70%) | 5 (Herbicidal rate of 90% or more (almost completely withered)) | 1 (Herbicidal rate of 5% or more and less than 20%) | 0 (Herbicidal rate of 5% or less (almost no effect)) | 5 (Herbicidal rate of 90% or more (almost completely withered)) | 5 (Herbicidal rate of 90% or more (almost completely withered)) |  |  |  |  |  |  | 
5 | Cc1ccc(-c2sc3ccc(F)cc3c2-c2c(O)c(C)nn(C)c2=O)cc1 [2-012] | 0 (Herbicidal rate of 5% or less (almost no effect)) | 3 (Herbicidal rate of 40% or more and less than 70%) | 0 (Herbicidal rate of 5% or less (almost no effect)) | 5 (Herbicidal rate of 90% or more (almost completely withered)) |  |  |  |  |  |  | 5 (Herbicidal rate of 90% or more (almost completely withered)) | 4 (Herbicidal rate of 70% or more and less than 90%) | 4 (Herbicidal rate of 70% or more and less than 90%) | 5 (Herbicidal rate of 90% or more (almost completely withered)) | 5 (Herbicidal rate of 90% or more (almost completely withered)) | 5 (Herbicidal rate of 90% or more (almost completely withered)) | 0 (Herbicidal rate of 5% or less (almost no effect)) | 4 (Herbicidal rate of 70% or more and less than 90%) | 5 (Herbicidal rate of 90% or more (almost completely withered)) | 5 (Herbicidal rate of 90% or more (almost completely withered)) | 
6 | CCCC(=O)Oc1c(C)nn(C)c(=O)c1-c1c(-c2ccc(C)cc2)sc2ccc(F)cc12 [2-013] | 2 (Herbicidal rate of 20% or more and less than 40%) | 2 (Herbicidal rate of 20% or more and less than 40%) | 3 (Herbicidal rate of 40% or more and less than 70%) | 5 (Herbicidal rate of 90% or more (almost completely withered)) |  |  |  |  |  |  | 5 (Herbicidal rate of 90% or more (almost completely withered)) | 3 (Herbicidal rate of 40% or more and less than 70%) | 4 (Herbicidal rate of 70% or more and less than 90%) | 5 (Herbicidal rate of 90% or more (almost completely withered)) | 5 (Herbicidal rate of 90% or more (almost completely withered)) | 4 (Herbicidal rate of 70% or more and less than 90%) | 3 (Herbicidal rate of 40% or more and less than 70%) | 3 (Herbicidal rate of 40% or more and less than 70%) | 4 (Herbicidal rate of 70% or more and less than 90%) | 4 (Herbicidal rate of 70% or more and less than 90%) | 
